Test results as given in patent US11174243B2, “Succinate forms and compositions of Bruton's tyrosine kinase inhibitors” (Sunesis Pharmaceuticals, Inc., priority 2016, dated 2021).

Biological target: T1, ITK (Homo sapiens, UniProt Q08881)
T1 sequence (Q08881 1-620): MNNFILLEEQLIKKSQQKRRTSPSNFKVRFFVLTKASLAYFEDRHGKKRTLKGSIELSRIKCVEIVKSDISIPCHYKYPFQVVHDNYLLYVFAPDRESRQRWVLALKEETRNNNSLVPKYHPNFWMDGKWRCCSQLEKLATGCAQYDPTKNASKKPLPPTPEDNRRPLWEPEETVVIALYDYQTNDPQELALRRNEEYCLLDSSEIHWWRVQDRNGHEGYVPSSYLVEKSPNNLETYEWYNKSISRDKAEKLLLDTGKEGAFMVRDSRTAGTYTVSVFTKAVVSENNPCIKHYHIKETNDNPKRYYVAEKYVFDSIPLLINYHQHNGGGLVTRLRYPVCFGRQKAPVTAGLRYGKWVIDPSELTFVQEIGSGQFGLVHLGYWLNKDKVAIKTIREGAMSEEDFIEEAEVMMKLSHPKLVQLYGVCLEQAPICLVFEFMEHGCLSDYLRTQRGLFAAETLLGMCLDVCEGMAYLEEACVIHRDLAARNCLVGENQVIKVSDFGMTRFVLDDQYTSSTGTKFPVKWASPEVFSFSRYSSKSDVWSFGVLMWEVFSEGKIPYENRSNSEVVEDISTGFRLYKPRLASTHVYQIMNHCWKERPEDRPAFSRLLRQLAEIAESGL
Experiment: In vitro kinase assay, ITK

Work on `NC(=O)[C@H]1CCN(c2ncnc(N)c2F)C[C@@H]1N1CCC[C@@H](Nc2cc(Cl)cc(C(F)(F)F)c2)C1=O` [Compound 1, (3R,3′R,4′S)-1′-(6-amino-5-fluoropyrimidin-4-yl)-3-((3-chloro-5-(trifluoromethyl)phenyl)amino)-2-oxo-[1,3′-bipiperidine]-4′-carboxamide] yielded an IC50 of 24 nM.
